# Data as given in patent publication US12202805B2, “Process for preparing (5S)-{[2-(4-carboxyphenyl)ethyl] |2-(2-{|3-chloro-4'-(trifluoromethyl)biphenyl-4-yl]methoxy}phenyl)ethyl]aminol-5,6,7,8-tetrahydroquinoline-2-carboxylic acid and its crystalline forms for use as pharmaceutically active compound” (Bayer Aktiengesellschaft, priority 2021, dated 2025).
# Several values for one entry are separate records, joined by “and”; a condition that tells them apart may be missing. Equal values may be shown once.
# Test system: thromboxane A2 challenged PAH-minipig
# Experiment: Haemodynamics in the anesthetized thromboxane challenged minipig, intratracheal dry powder (PAP, BP)
# Assay type: in vivo, Göttingen Minipigs
# Settings: for BP (absolute values) / PAP (absolute values): lactose vehicle first, test powder 1.5 mg/4 kg i.t. @90 min, each animal (n=3); for % changes vs. baseline on PAP: each animal
# Description: Healthy Göttingen Minipigs® Ellegaard (Ellegaard, Denmark) of both sexes and having a weight of 2-6 kg were used. The animals were sedated by i.m. administration of about 25 mg/kg ketamine and about 10 mg/kg azaperone. Anaesthesia was initiated by i.v. administration of about 2 mg/kg ketamine and about 0.3 mg/kg midazolam. Maintenance of anaesthesia was by i.v. administration of about 7.5-30 mg/kg/h ketamine and about 1-4 mg/kg/h midazolam (rate of infusion 1-4 ml/kg/h) and about 150 μg/kg/h pancuronium bromide (for example Pancuronium-Actavis). After intubation, the animals were ventilated by the ventilator at a constant respiratory volume (10-12 ml/kg, 35 breaths/min; Avea®, Viasys Healthcare, USA, or Engström Carestation, GE Healthcare, Freiburg, Germany) such that an end-tidal CO2 concentration of about 5% was achieved. Ventilation was performed with room air, enriched with about 40% oxygen (normoxia). For the measurement of the haemodynamic parameters such as pulmonary arterial pressure (PAP), blood pressure (BP) and heart rate (HR), catheters were inserted into the carotid artery to measure the blood pressure, and a Swan-Ganz® catheter was introduced in a flow-directed manner via the jugular vein into the pulmonary artery. The haemodynamic signals were recorded and evaluated by means of pressure transducers (Combitransducer, B. Braun, Melsungen, Germany)/amplifiers and Ponemah® as data acquisition software.
# As reference pure Lactose vehicle was applied in the beginning of each experiment.
# [1] = time 0 min, 375 μg/kg i.t., sesquihydrate
# [2] = time 10 min, 375 μg/kg i.t., sesquihydrate
# [3] = time 20 min, 375 μg/kg i.t., sesquihydrate
# [4] = time 20 min, listed as ex. 6e, sesquihydrate
# [5] = time 30 min, listed as ex. 6e, sesquihydrate
# [6] = time 40 min, listed as ex. 6e, sesquihydrate
# [7] = time 50 min, 375 μg/kg i.t., sesquihydrate
# [8] = time 50 min, listed as ex. 6e, sesquihydrate
# [9] = time 60 min, 375 μg/kg i.t., sesquihydrate
# [10] = time 60 min, listed as ex. 6e, sesquihydrate
# [11] = time 70 min, 375 μg/kg i.t., sesquihydrate
# [12] = time 70 min, listed as ex. 6e, sesquihydrate
# [13] = time 80 min, 375 μg/kg i.t., sesquihydrate
# [14] = time 80 min, listed as ex. 6e, sesquihydrate
# [15] = time 90 min, 375 μg/kg i.t., sesquihydrate
# [16] = time 90 min, listed as ex. 6e, sesquihydrate
# [17] = time 100 min, 375 μg/kg i.t., sesquihydrate
# [18] = time 100 min, listed as ex. 6e, sesquihydrate
# [19] = time 110 min, 375 μg/kg i.t., sesquihydrate
# [20] = time 110 min, listed as ex. 6e, sesquihydrate
# [21] = time 120 min, 375 μg/kg i.t., sesquihydrate
# [22] = time 120 min, listed as ex. 6e, sesquihydrate
# [23] = time 130 min, listed as ex. 6e, sesquihydrate
# [24] = time 140 min, listed as ex. 6e, sesquihydrate
structure (smiles),measurement,setting,value
"O.O.O.O=C(O)c1ccc(CCN(CCc2ccccc2OCc2ccc(-c3ccc(C(F)(F)F)cc3)cc2Cl)[C@H]2CCCc3nc(C(=O)O)ccc32)cc1.O=C(O)c1ccc(CCN(CCc2ccccc2OCc2ccc(-c3ccc(C(F)(F)F)cc3)cc2Cl)[C@H]2CCCc3nc(C(=O)O)ccc32)cc1 [example 6e, (5S)—{[2-(4-Carboxyphenyl)ethyl][2-(2-{[3-chloro-4′-(trifluoromethyl)biphenyl-4-yl]methoxy}phenyl)-ethyl]amino}-5,6,7,8-tetrahydroquinoline-2-carboxylic acid sesquihydrate]",systemic blood pressure,"375 μg/kg i.t., within the last hour of the observation interval",slightly affected
same,maximal effect achievable in this animal model,i.t. dry powder,maximal effect
same,time to maximum effect after i.t. application,"i.t. dry powder, 1.5 mg/4 kg animal weight",approximately 80 min
same,effect on PAP and BP,"i.t. via PennCentury dry powder insufflator, 1.5 mg/4 kg animal weight",decrease of PAP without any effects on BP
same,efficacy with regard to PAP reduction as well as systemic BP reduction,"micronized hydrates, 1.5 mg/4 kg (=375 μg/kg) i.t.",comparable efficacy
same,BP (mean),[1],99 mmHg and 104 mmHg and 117 mmHg
same,PAP(mean),[1],41.9 mmHg and 37.1 mmHg and 37.5 mmHg
same,BP (mean),"time 10 min, 375 μg/kg i.t.",99 mmHg
same,BP (mean),[2],108 mmHg and 119 mmHg
same,PAP(mean),[2],42.0 mmHg and 37.3 mmHg and 38.6 mmHg
same,BP (mean),"time 20 min, 375 μg/kg i.t.",99 mmHg
same,BP (mean),[3],109 mmHg and 118 mmHg
same,PAP(mean),[3],41.4 mmHg
same,BP (absolute values),time 20 min,99 mmHg
same,BP (absolute values),[4],107 mmHg and 119 mmHg
same,PAP (absolute values),[4],42.0 mmHg and 36.4 mmHg and 37.5 mmHg
same,BP (mean),"time 30 min, 375 μg/kg i.t.",100 mmHg
same,BP (mean),"time 30 min, 375 μg/kg i.t., sesquihydrate",107 mmHg and 118 mmHg
same,BP (absolute values),[5],99 mmHg and 104 mmHg and 117 mmHg
same,PAP (absolute values),[5],41.9 mmHg and 37.1 mmHg and 37.5 mmHg
same,BP (mean),"time 40 min, 375 μg/kg i.t.",100 mmHg
same,BP (absolute values),time 40 min,99 mmHg
same,BP (absolute values),[6],108 mmHg and 119 mmHg
same,PAP (absolute values),[6],42.0 mmHg and 37.3 mmHg and 38.6 mmHg
same,"BP, % changes vs. prevalues",[7],101.4% and 98.5% and 100.3%
same,"PAP, % changes vs. prevalues",[7],98.3% and 96.2% and 101.2%
same,BP (absolute values),time 50 min,99 mmHg
same,BP (absolute values),[8],109 mmHg and 118 mmHg
same,PAP (absolute values),[8],41.4 mmHg and 37.4 mmHg and 39.8 mmHg
same,"BP, % changes vs. prevalues",[9],102.5% and 100.3% and 99.4%
same,"PAP, % changes vs. prevalues",[9],97.2% and 99.6% and 101.1%
same,BP (absolute values),time 60 min,100 mmHg
same,BP (absolute values),[10],107 mmHg and 118 mmHg
same,PAP (absolute values),[10],41.4 mmHg and 36.8 mmHg and 41.2 mmHg
same,"BP, % changes vs. prevalues",[11],99.4% and 96.0% and 98.6%
same,"PAP, % changes vs. prevalues",[11],97.8% and 97.5% and 98.5%
same,BP (absolute values),time 70 min,100 mmHg
same,BP (absolute values),[12],109 mmHg and 118 mmHg
same,PAP (absolute values),[12],41.0 mmHg and 37.4 mmHg and 41.3 mmHg
same,% changes vs. baseline on PAP,"time 80 min (baseline = 100.0), i.t. dry powder",100.0%
same,"BP, % changes vs. prevalues",[13],101.4% and 96.8% and 97.7%
same,"PAP, % changes vs. prevalues",[13],87.8% and 94.9% and 87.9%
same,BP (absolute values),[14],101 mmHg and 114 mmHg and 119 mmHg
same,PAP (absolute values),[14],40.9 mmHg and 38.1 mmHg and 40.8 mmHg
same,"BP, % changes vs. prevalues",[15],101.4% and 98.5% and 96.9%
same,"PAP, % changes vs. prevalues",[15],82.5% and 92.0% and 76.6%
same,% changes vs. baseline on PAP,"time 90 min, baseline 100.0 at 80 min, i.t. dry powder, sesquihydrate",98.9% and 103.6% and 99.8%
same,BP (absolute values),time 90 min,102 mmHg
same,BP (absolute values),[16],116 mmHg and 118 mmHg
same,PAP (absolute values),[16],40.4 mmHg and 39.5 mmHg and 40.7 mmHg
same,"BP, % changes vs. prevalues",[17],101.4% and 98.5% and 96.9%
same,"PAP, % changes vs. prevalues",[17],77.6% and 90.1% and 71.1%
same,% changes vs. baseline on PAP,"time 100 min, baseline 100.0 at 80 min, i.t. dry powder, sesquihydrate",99.5% and 101.4% and 97.3%
same,BP (absolute values),time 100 min,99 mmHg
same,BP (absolute values),[18],111 mmHg and 117 mmHg
same,PAP (absolute values),[18],40.7 mmHg and 38.7 mmHg and 39.6 mmHg
same,"BP, % changes vs. prevalues",[19],99.4% and 103.7% and 96.1%
same,"PAP, % changes vs. prevalues",[19],74.0% and 88.3% and 68.4%
same,% changes vs. baseline on PAP,"time 110 min, baseline 100.0 at 80 min, i.t. dry powder, sesquihydrate",89.3% and 98.7% and 86.8%
same,BP (absolute values),[20],101 mmHg and 112 mmHg and 116 mmHg
same,PAP (absolute values),[20],36.5 mmHg and 37.6 mmHg and 35.4 mmHg
same,"BP, % changes vs. prevalues",[21],99.4%
same,"PAP, % changes vs. prevalues",[21],72.8% and 73.1% and 66.2%
same,% changes vs. baseline on PAP,"time 120 min, baseline 100.0 at 80 min, i.t. dry powder, sesquihydrate",84.0% and 95.6% and 75.7%
same,BP (absolute values),[22],101 mmHg and 114 mmHg and 115 mmHg
same,PAP (absolute values),[22],34.3 mmHg and 36.4 mmHg and 30.8 mmHg
same,"PAP, % changes vs. prevalues","time 130 min, 375 μg/kg i.t., sesquihydrate",69.8%
same,% changes vs. baseline on PAP,"time 130 min, baseline 100.0 at 80 min, i.t. dry powder, sesquihydrate",78.9% and 93.7% and 70.2%
same,BP (absolute values),[23],101 mmHg and 114 mmHg and 115 mmHg
same,PAP (absolute values),[23],32.3 mmHg and 35.7 mmHg and 28.6 mmHg
same,% changes vs. baseline on PAP,"time 140 min, baseline 100.0 at 80 min, i.t. dry powder, sesquihydrate",75.2% and 91.8% and 67.5%
same,BP (absolute values),[24],99 mmHg and 120 mmHg and 114 mmHg
same,PAP (absolute values),[24],30.8 mmHg and 35.0 mmHg and 27.5 mmHg
same,% changes vs. baseline on PAP,"time 150 min, baseline 100.0 at 80 min, i.t. dry powder, sesquihydrate",74.0% and 76.0% and 65.4%
